# Measurements reported in US20080009418A1, “Selective Inhibitors” (Alchemia LTD., priority 2004, published 2008).
# Key:
# Human δ-opioid (DOP) = biological target: T1, Human δ-opioid (DOP) (Homo sapiens, UniProt P41143); assay: Radioligand binding, human δ-opioid (DOP) membranes, FlashPlate, [3H]-Bremazocine; conditions: compound at 10 μM, [3H]-Bremazocine; for A1: inhibition of radioligand binding: FlashPlate
# T1 construct: purchased Perkin Elmer Biosignal
# Summary of the method: (§1)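 Cloned human receptor membranes were coated onto FlashPlate wells and incubated with radioligand and compound (added from a 0.5 mM DMSO daughter plate) for 1 hour at room temperature in the dark. Scintillation counting gave percent inhibition, with DMSO defining total and reference ligand defining non-specific binding.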
# Human κ-Opioid (KOP) = biological target: T2, Human κ-Opioid (KOP) (Homo sapiens, UniProt P41145); assay: Radioligand binding, human κ-opioid (KOP) membranes, filtration, [3H]-Diprenorphine; conditions: compound at 10 μM, [3H]-Diprenorphine; for A2: inhibition of radioligand binding: filtration
# T2 construct: purchased Perkin Elmer Biosignal
# Summary of the method: (§2)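 Membranes from cloned human receptors were incubated with compound and radioligand for 1 hour at room temperature. Bound ligand was collected on 0.3% PEI-soaked filters, washed with cold 50 mM Tris-HCl pH 7.4, and counted by scintillation. Percent inhibition was computed against DMSO totals and reference-ligand nonspecific wells.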
# Human Melanocortin (MC3) = biological target: T3, Human Melanocortin (MC3) (Homo sapiens, UniProt P41968); assay: Radioligand binding, human melanocortin MC3 membranes, FlashPlate, [125I]-NDP-αMSH; conditions: compound at 10 μM, [125I]-NDP-αMSH; for A3: inhibition of radioligand binding: FlashPlate
# T3 construct: purchased Perkin Elmer Biosignal
# Summary of the method: as §1
# Human Melanocortin (MC4) = biological target: T4, Human Melanocortin (MC4) (Homo sapiens, UniProt P32245); assay: Radioligand binding, human melanocortin MC4 membranes, FlashPlate, [125I]-NDP-αMSH; conditions: compound at 10 μM, [125I]-NDP-αMSH; for A4: inhibition of radioligand binding: FlashPlate
# T4 construct: purchased Perkin Elmer Biosignal
# Summary of the method: as §1
# Human melanocortin (MC5) = biological target: T5, Human melanocortin (MC5) (Homo sapiens, UniProt P33032); assay: Radioligand binding, human melanocortin MC5 membranes, FlashPlate, [125I]-NDP-αMSH; conditions: compound at 10 μM, [125I]-NDP-αMSH; for A5: inhibition of radioligand binding: FlashPlate
# T5 construct: purchased Perkin Elmer Biosignal
# Summary of the method: as §1
# [1] = biological target: T6, Human melanin-concentrating hormone (MCH1) (Homo sapiens, UniProt Q99705); assay: Radioligand binding, human melanin-concentrating hormone MCH1 membranes, FlashPlate, [125I]-S36057; conditions: compound at 10 μM; for A6: inhibition of radioligand binding: [125I]-S36057, FlashPlate
# T6 construct: purchased Perkin Elmer Biosignal
# Summary of the method: as §1
# Human μ-opioid (MOP) = biological target: T7, Human μ-opioid (MOP) (Homo sapiens, UniProt P35372); assay: Radioligand binding, human μ-opioid (MOP) membranes, FlashPlate, [3H]-Naloxone; conditions: compound at 10 μM, [3H]-Naloxone; for A7: inhibition of radioligand binding: FlashPlate
# T7 construct: purchased Perkin Elmer Biosignal
# Summary of the method: as §1
# Human neurokinin (NK1) = biological target: T8, Human neurokinin (NK1) (Homo sapiens, UniProt P25103); assay: Radioligand binding, human neurokinin NK1 membranes, filtration, [125I]-Substance P; conditions: compound at 10 μM, [125I]-Substance P; for A8: inhibition of radioligand binding: filtration
# T8 construct: purchased Perkin Elmer Biosignal
# Summary of the method: as §2
# [2] = biological target: T9, Human neuropeptide Y (NPY-Y1) (Homo sapiens, UniProt P25929); assay: Radioligand binding, human neuropeptide Y NPY-Y1 membranes, FlashPlate, [125I]-PYY; conditions: compound at 10 μM, [125I]-PYY; for A9: inhibition of radioligand binding: FlashPlate
# T9 construct: purchased Perkin Elmer Biosignal
# T9 sequence (P25929 1-384): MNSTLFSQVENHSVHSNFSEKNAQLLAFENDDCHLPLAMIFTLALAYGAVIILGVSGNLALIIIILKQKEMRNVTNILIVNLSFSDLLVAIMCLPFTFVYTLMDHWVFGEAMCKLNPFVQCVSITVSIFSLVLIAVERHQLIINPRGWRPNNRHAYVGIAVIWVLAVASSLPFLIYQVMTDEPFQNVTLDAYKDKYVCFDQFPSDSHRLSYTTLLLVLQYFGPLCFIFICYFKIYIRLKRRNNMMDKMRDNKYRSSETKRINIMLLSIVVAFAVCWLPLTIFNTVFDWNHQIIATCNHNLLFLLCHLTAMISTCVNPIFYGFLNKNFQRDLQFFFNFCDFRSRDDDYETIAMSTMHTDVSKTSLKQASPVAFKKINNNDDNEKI
# Summary of the method: as §1
# Human opioid (ORL1) = biological target: T10, Human opioid (ORL1) (Homo sapiens, UniProt P41146); assay: Radioligand binding, human opioid ORL1 membranes, FlashPlate, [125I]-Nociceptin; conditions: compound at 10 μM, [125I]-Nociceptin; for A10: inhibition of radioligand binding: FlashPlate
# T10 construct: purchased Perkin Elmer Biosignal
# Summary of the method: as §1
# Mouse urotensin (mUR2) = biological target: T11, Mouse urotensin (mUR2) (Mus musculus, UniProt Q8VIH9); assay: Radioligand binding, mouse urotensin mUR2 membranes, FlashPlate, [125I]-Urotensin II; conditions: compound at 10 μM, [125I]-Urotensin II; for A11: inhibition of radioligand binding: FlashPlate
# T11 construct: purchased Perkin Elmer Biosignal
# T11 sequence (Q8VIH9 1-385): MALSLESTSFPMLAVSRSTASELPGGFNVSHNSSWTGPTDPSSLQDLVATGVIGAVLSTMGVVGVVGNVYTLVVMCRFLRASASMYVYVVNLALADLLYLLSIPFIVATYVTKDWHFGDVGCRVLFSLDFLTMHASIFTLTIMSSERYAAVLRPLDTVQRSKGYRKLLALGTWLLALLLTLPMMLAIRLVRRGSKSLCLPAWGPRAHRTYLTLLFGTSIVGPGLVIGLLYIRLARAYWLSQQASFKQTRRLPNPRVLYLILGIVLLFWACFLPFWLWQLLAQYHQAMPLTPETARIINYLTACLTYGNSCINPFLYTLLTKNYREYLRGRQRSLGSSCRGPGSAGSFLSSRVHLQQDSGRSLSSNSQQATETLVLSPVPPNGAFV
# Summary of the method: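 Cloned mouse urotensin (mUR2) receptor membranes from Perkin Elmer Biosignal were immobilized in FlashPlate microplates using a proprietary coating. Each well got 19.5 μl buffer, then 0.5 μl of DMSO, reference ligand, or compound. Adding 5 μl of [125I]-Urotensin II, diluted to 5× final concentration in binding buffer, started binding. Plates were sealed with TopSeal-A and incubated 1 hour at room temperature in the dark. Wells were counted for 30 seconds each on a TopCount after a 60-second delay, and percentage inhibition was calculated.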
# T8 sequence (P25103 whole entry): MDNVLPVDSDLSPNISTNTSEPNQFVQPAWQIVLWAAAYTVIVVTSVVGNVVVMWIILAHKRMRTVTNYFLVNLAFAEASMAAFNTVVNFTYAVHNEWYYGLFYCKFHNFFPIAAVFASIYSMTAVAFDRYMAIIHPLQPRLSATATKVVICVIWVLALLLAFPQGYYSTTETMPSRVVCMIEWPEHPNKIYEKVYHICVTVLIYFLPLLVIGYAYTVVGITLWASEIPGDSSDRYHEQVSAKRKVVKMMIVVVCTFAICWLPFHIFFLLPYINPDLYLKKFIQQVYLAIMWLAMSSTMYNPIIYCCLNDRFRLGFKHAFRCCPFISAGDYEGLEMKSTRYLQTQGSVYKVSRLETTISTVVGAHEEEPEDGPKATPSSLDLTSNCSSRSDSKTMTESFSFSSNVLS
# T6 sequence (Q99705 whole entry): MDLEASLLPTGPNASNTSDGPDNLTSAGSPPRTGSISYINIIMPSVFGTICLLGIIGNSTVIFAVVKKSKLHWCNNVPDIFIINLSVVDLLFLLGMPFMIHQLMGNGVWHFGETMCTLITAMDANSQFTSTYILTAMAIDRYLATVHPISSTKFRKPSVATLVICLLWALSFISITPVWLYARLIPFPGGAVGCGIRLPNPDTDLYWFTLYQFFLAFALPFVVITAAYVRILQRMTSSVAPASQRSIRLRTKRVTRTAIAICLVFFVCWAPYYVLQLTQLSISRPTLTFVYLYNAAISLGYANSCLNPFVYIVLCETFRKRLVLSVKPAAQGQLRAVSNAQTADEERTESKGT
# T3 sequence (P41968 whole entry): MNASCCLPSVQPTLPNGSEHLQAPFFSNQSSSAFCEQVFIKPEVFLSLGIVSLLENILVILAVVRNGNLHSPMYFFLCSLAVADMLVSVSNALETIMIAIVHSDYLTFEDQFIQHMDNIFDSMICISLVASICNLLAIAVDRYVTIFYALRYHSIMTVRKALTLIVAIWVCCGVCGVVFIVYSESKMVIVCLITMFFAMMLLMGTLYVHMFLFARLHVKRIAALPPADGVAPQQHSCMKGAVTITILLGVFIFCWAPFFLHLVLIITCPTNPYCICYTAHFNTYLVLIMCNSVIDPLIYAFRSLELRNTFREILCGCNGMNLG
# T4 sequence (P32245 whole entry): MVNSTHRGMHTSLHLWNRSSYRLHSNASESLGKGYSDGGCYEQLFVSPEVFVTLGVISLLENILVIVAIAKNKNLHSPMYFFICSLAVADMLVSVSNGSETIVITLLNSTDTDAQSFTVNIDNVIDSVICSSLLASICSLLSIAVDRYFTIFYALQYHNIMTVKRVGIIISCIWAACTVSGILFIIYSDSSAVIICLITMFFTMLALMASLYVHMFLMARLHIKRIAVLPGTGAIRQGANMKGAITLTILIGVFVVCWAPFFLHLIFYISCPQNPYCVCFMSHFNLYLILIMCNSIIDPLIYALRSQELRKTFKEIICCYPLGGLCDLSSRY
# T10 sequence (P41146 whole entry): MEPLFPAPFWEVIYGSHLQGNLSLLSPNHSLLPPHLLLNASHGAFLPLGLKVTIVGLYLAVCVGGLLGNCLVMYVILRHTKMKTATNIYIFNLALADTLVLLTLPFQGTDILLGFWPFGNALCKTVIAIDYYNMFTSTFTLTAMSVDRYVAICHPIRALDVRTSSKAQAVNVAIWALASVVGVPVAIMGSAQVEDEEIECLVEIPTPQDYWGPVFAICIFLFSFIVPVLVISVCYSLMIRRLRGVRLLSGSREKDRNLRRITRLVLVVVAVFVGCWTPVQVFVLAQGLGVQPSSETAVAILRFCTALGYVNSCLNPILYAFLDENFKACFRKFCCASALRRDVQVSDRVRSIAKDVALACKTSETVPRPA
# T5 sequence (P33032 whole entry): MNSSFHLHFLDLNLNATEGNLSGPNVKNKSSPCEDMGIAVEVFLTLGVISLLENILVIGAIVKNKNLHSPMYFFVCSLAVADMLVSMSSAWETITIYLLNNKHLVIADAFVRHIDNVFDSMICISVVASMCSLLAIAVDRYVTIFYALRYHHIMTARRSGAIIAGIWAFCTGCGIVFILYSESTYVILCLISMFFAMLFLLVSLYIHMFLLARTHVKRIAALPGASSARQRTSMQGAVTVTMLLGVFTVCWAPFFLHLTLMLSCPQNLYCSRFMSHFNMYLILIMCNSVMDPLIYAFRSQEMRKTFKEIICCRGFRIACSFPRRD
# T7 sequence (P35372 whole entry): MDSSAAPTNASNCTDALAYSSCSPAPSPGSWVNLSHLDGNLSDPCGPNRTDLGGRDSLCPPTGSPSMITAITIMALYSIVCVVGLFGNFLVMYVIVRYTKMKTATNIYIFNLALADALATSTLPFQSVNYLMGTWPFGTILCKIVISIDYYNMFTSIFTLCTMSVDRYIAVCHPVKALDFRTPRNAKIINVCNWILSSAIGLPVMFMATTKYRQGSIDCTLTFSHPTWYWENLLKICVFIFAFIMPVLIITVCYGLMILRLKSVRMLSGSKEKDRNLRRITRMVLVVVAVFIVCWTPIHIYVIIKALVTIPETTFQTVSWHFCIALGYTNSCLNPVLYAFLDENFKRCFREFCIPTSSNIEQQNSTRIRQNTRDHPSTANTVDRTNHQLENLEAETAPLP
# T1 sequence (P41143 whole entry): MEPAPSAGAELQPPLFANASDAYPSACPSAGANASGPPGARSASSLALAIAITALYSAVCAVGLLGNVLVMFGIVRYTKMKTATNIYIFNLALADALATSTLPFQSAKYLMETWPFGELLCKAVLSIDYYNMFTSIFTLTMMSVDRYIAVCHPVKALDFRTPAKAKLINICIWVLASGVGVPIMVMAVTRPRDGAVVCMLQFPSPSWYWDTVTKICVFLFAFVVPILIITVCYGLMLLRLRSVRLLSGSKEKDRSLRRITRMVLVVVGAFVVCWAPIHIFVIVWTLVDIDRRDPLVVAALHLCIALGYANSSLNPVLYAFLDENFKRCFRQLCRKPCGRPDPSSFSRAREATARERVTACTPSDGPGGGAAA
# T2 sequence (P41145 whole entry): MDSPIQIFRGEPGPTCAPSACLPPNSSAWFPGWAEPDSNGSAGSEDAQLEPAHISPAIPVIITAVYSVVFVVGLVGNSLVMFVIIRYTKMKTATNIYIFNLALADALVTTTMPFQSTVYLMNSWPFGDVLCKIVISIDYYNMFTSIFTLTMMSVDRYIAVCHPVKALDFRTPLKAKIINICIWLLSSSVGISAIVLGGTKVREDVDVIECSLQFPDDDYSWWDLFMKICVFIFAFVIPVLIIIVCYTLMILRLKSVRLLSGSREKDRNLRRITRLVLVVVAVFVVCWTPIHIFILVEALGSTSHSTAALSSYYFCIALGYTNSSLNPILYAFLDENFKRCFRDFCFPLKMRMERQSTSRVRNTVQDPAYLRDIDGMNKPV
Structure (SMILES),A1: inhibition of radioligand binding (Human δ-opioid (DOP)),A2: inhibition of radioligand binding (Human κ-Opioid (KOP)),A3: inhibition of radioligand binding (Human Melanocortin (MC3)),A4: inhibition of radioligand binding (Human Melanocortin (MC4)),A5: inhibition of radioligand binding (Human melanocortin (MC5)),A6: inhibition of radioligand binding [1],A7: inhibition of radioligand binding (Human μ-opioid (MOP)),A8: inhibition of radioligand binding (Human neurokinin (NK1)),A9: inhibition of radioligand binding [2],A10: inhibition of radioligand binding (Human opioid (ORL1)),A11: inhibition of radioligand binding (Mouse urotensin (mUR2)),other results
COCC1OC(OCCc2ccccc2)C(NC(=O)CN)C(OCc2ccccc2)C1O (centres unmarked) [compound 214],− (“−” indicates less than 50% inhibition at 10 μM),− (“−” indicates less than 50% inhibition at 10 μM),− (“−” indicates less than 50% inhibition at 10 μM),− (“−” indicates less than 50% inhibition at 10 μM),− (“−” indicates less than 50% inhibition at 10 μM),− (“−” indicates less than 50% inhibition at 10 μM),− (“−” indicates less than 50% inhibition at 10 μM),+ (“+” indicates greater than 50% inhibition at 10 μM),− (“−” indicates less than 50% inhibition at 10 μM),− (“−” indicates less than 50% inhibition at 10 μM),− (“−” indicates less than 50% inhibition at 10 μM),
CSC1OC(COCc2ccc(-c3ccccc3)cc2)C(O)C(OCc2ccccc2)C1NC(=O)CCNC(=N)N (centres unmarked) [compound 257],− (“−” indicates less than 50% inhibition at 10 μM),− (“−” indicates less than 50% inhibition at 10 μM),− (“−” indicates less than 50% inhibition at 10 μM),+ (“+” indicates greater than 50% inhibition at 10 μM),− (“−” indicates less than 50% inhibition at 10 μM),− (“−” indicates less than 50% inhibition at 10 μM),− (“−” indicates less than 50% inhibition at 10 μM),+ (“+” indicates greater than 50% inhibition at 10 μM),− (“−” indicates less than 50% inhibition at 10 μM),− (“−” indicates less than 50% inhibition at 10 μM),− (“−” indicates less than 50% inhibition at 10 μM),
COCC1OC(OCCc2ccccc2)C(NC(=O)CNC(=N)N)C(OCc2ccc(-c3ccccc3)cc2)C1O (centres unmarked) [compound 549],,,,,,,,,,,,"A1: inhibition of radioligand binding, human δ-opioid (DOP) (Human δ-opioid (DOP)): − (“−” indicates less than 50% inhibition at 10 μM); A2: inhibition of radioligand binding, human κ-opioid (KOP) (Human κ-Opioid (KOP)): − (“−” indicates less than 50% inhibition at 10 μM); A3: inhibition of radioligand binding, human melanocortin (MC3) (Human Melanocortin (MC3)): − (“−” indicates less than 50% inhibition at 10 μM); A4: inhibition of radioligand binding, human melanocortin (MC4) (Human Melanocortin (MC4)): − (“−” indicates less than 50% inhibition at 10 μM); A5: inhibition of radioligand binding, human melanocortin (MC5) (Human melanocortin (MC5)): + (“+” indicates greater than 50% inhibition at 10 μM); A6: inhibition of radioligand binding, human melanin-concentrating hormone (MCH1) ([1]; [125I]-S36057): − (“−” indicates less than 50% inhibition at 10 μM); A7: inhibition of radioligand binding, human μ-opioid (MOP) (Human μ-opioid (MOP)): − (“−” indicates less than 50% inhibition at 10 μM); A8: inhibition of radioligand binding, human neurokinin (NK1) (Human neurokinin (NK1); 10 µM): − (“−” indicates less than 50% inhibition at 10 μM); A9: inhibition of radioligand binding, human neuropeptide Y (NPY-Y1) [2]: − (“−” indicates less than 50% inhibition at 10 μM); A10: inhibition of radioligand binding, human opioid (ORL1) (Human opioid (ORL1)): − (“−” indicates less than 50% inhibition at 10 μM); A11: inhibition of radioligand binding, mouse urotensin (mUR2) (Mouse urotensin (mUR2)): − (“−” indicates less than 50% inhibition at 10 μM)"
COCC1OC(OCc2ccc3ccccc3c2)C(NC(=O)CN)C(OCc2ccc3ccccc3c2)C1O (centres unmarked) [compound 246],− (“−” indicates less than 50% inhibition at 10 μM),− (“−” indicates less than 50% inhibition at 10 μM),− (“−” indicates less than 50% inhibition at 10 μM),− (“−” indicates less than 50% inhibition at 10 μM),− (“−” indicates less than 50% inhibition at 10 μM),− (“−” indicates less than 50% inhibition at 10 μM),− (“−” indicates less than 50% inhibition at 10 μM),+ (“+” indicates greater than 50% inhibition at 10 μM),− (“−” indicates less than 50% inhibition at 10 μM),− (“−” indicates less than 50% inhibition at 10 μM),− (“−” indicates less than 50% inhibition at 10 μM),
